The source of these data is ChEMBL document CHEMBL5055630, “Design, synthesis and biological evaluation of indole-based [1,2,4]triazolo[4,3-a] pyridine derivatives as novel microtubule polymerization inhibitors” (Eur J Med Chem, 2021).

The test system of one data set is MCF7. Briefly: Antiproliferative activity against human MCF7 assessed as reduction in cell viability measured after 48 hrs by MTT assay. The class given is functional, cell-based. The note with it: MCF7, 48 h. (In general: Tetrazolium dyes change colour on reduction, which living cells bring about.)
In another data set the test system is HCT-116. Briefly: Antiproliferative activity against human HCT-116 assessed as reduction in cell viability measured after 48 hrs by MTT assay. The class given is functional, cell-based. The following applies: HCT-116, 48 h.
The next data set relates to A549. Briefly: Antiproliferative activity against human A549 assessed as reduction in cell viability measured after 48 hrs by MTT assay. Type of data set: functional, cell-based. The note with it: A549, 48 h.
For data set [1], the system named is HeLa. In words: Antiproliferative activity against human HeLa assessed as reduction in cell viability measured after 48 hrs by MTT assay. The class given is functional, cell-based.
Data set [2] can be described thus: Metabolic stability in human liver microsomes assessed as parent compound remaining after 30 mins. The following applies: read-out: Stability. The class given is ADME, Microsome. (In general: Microsomes from liver hold many membrane-bound enzymes, among them those of drug oxidation.)
In data set [3] the test system is HeLa. Briefly: Induction of apoptosis in human HeLa cells assessed as viable cells at 5 nM incubated for 48 hrs by Annexin V and propidium iodide Staining based assay (reference value: 98.5 %). Type of data set: functional. The note with it: read-out: Activity.
Data set [4] is described as follows: Metabolic stability in human liver microsomes assessed as parent compound remaining after 60 mins. The class given is ADME, Microsome. The following applies: read-out: Stability.
Data set [5] relates to HeLa. In words: Induction of apoptosis in human HeLa cells assessed as necrotic cells at 5 nM incubated for 48 hrs by Annexin V and propidium iodide Staining based assay (reference value: 0.4%). The class given is functional.
The subject of data set [6] is HeLa. In words: Induction of apoptosis in human HeLa cells assessed as early apoptotic cells at 5 nM incubated for 48 hrs by Annexin V and propidium iodide Staining based assay (reference value: 0.2%). The class given is functional.
Data set [7] deals with HeLa. In words: Induction of apoptosis in human HeLa cells assessed as late apoptotic cells at 5 nM incubated for 48 hrs by Annexin V and propidium iodide Staining based assay (reference value: 1 %). Type of data set: functional.
Data set [8] in a line: Metabolic stability in human liver microsomes assessed as parent compound remaining after 15 mins. The class given is ADME, Microsome. The note with it: read-out: Stability.
A short description of data set [9]: Metabolic stability in human liver microsomes assessed as parent compound remaining measured immediately after compound addition. The note with it: read-out: Stability. Type of data set: ADME, Microsome.
Data set [10] is described as follows: Metabolic stability in human liver microsomes assessed as half life. The class given is ADME, Microsome.
Data set [11] is described as follows: Metabolic stability in human liver microsomes assessed as parent compound remaining after 90 mins. Type of data set: ADME, Microsome. The following applies: read-out: Stability.

As to `CCCN1CC(Oc2cc(-c3ccc4c(ccn4C)c3)cn3c(-c4cc(OC)c(OC)c(OC)c4)nnc23)C1`, the half-inhibitory concentration (IC50) (usually the midpoint of a concentration-inhibition curve) was found to be 378 nM with MCF7, 675 nM with HCT-116, 234 nM with A549 and 211 nM in the data set on HeLa [1].

For `COc1ccc(/C=C\c2cc(OC)c(OC)c(OC)c2)cc1O` [COMBRETASTATIN A4], in data set [2], the remaining at 0.5 h was 54.1%. The viability at 0.005 µM with HeLa [3] came to 6.7%. In addition, the half-maximal inhibitory concentration (IC50) in the data set on MCF7 stood at 10 nM; with A549 it was 15 nM. The remaining at 1 h in data set [4] turned out to be 26.1%. Moreover, the Activity was found to be 2.6% in the data set on HeLa [5], 38.6% in the data set on HeLa [6] and 52.2% in the data set with HeLa [7]. The remaining at 0.25 h in data set [8] was found to be 75.6%. Further, the remaining at 0 min in data set [9] stood at 100%. Further, in [10], the half-life (in general, the time needed for the level to fall by half in the phase considered) was 32.5 min. Besides, the remaining at 1.5 h in data set [11] amounted to 15.4%.

On to `COc1cc(-c2nnc3c(OC4CCC4)cc(-c4ccc5c(ccn5C)c4)cn23)cc(OC)c1OC`, for which the half-maximal inhibitory concentration (IC50) in the data set on MCF7 is 125 nM; with HCT-116, 750 nM; in the data set with A549 it was 176 nM; in the data set on HeLa [1], 177 nM.

For the molecule `COc1cc(-c2nnc3c(OC)cc(-c4ccc5[nH]cc(C=O)c5c4)cn23)cc(OC)c1OC`, the IC50 with MCF7, in the data set on HCT-116, with A549 and in the data set on HeLa [1] was more than 10000 nM throughout.

For `COc1cc(-c2cc(OC)c3nnc(-c4ccc5[nH]ccc5c4)n3c2)cc(OC)c1OC`, the IC50 in the data set on MCF7, in the data set on HCT-116, in the data set on A549 and in the data set with HeLa [1] was more than 10000 nM in each case.

`COc1cc(-c2nnc3c(OC(C)C)cc(-c4ccc5[nH]ccc5c4)cn23)cc(OC)c1OC`: the half-inhibitory concentration (IC50) worked out at 1020 nM in the data set with MCF7, 939 nM with HCT-116, 1250 nM in the data set with A549 and 261 nM in the data set with HeLa [1].

Turning to `CCOc1cc(-c2ccc3ccn(C)c3c2)cn2c(-c3cc(OC)c(OC)c(OC)c3)nnc12`, the IC50 in the data set with MCF7 came out at 239 nM; in the data set with HCT-116 it was 291 nM; with A549, 349 nM; in the data set on HeLa [1] it was 240 nM.

Consider `CCOc1cc(-c2ccc3c(c2)c2ccccc2n3C)cn2c(-c3cc(OC)c(OC)c(OC)c3)nnc12`, for which the concentration for half-maximal inhibition (IC50) in the data set with MCF7 was 303 nM; with HCT-116, 386 nM; in the data set on A549, 901 nM; with HeLa [1] it was 350 nM.

Turning to `CCOc1cc(-c2ccc3cc[nH]c3c2)cn2c(-c3cc(OC)c(OC)c(OC)c3)nnc12`, the IC50 in the data set on MCF7 was determined as 334 nM; with HCT-116 it was 1340 nM; with A549, 626 nM; in the data set on HeLa [1], 272 nM.

Take `CCOc1cc(-c2ccc3[nH]c4ccccc4c3c2)cn2c(-c3cc(OC)c(OC)c(OC)c3)nnc12`: the IC50 in the data set with MCF7 came out at 295 nM; with HCT-116, 2420 nM; in the data set with A549 it was 922 nM; in the data set with HeLa [1] it was 472 nM.

With `COc1ccc(/C=C/C=C\c2cc(OC)c(OC)c(OC)c2)cc1O`, the remaining at 0.5 h in [2] was found to be 26.3%. Further, the IC50 worked out at 75 nM with MCF7, 42.3 nM in the data set with HCT-116, 118 nM with A549 and 62 nM in the data set on HeLa [1]. Besides, the remaining at 1 h in data set [4] was determined as 12.5%. For the same molecule, in [8], the remaining at 0.25 h was determined as 47.7%. Besides, the remaining at 0 min in data set [9] amounted to 100%. The half-life in [10] was found to be 26.7 min. The remaining at 1.5 h in data set [11] worked out at 9.2%.

With `CCOc1cc(-c2ccc3[nH]ccc3c2)cn2c(-c3cc(OC)c(OC)c(OC)c3)nnc12`, the concentration for half-maximal inhibition (IC50) in the data set with MCF7 turned out to be 284 nM; with HCT-116, 374 nM; with A549, 589 nM; in the data set with HeLa [1] it was 166 nM.

On to `COc1cc(-c2nnc3c(OC)cc(-c4ccc5c(c4)c(C=O)cn5C)cn23)cc(OC)c1OC`, for which the 50% inhibitory concentration (IC50) in the data set on MCF7 was determined as 1120 nM; in the data set with HCT-116, 1800 nM; with A549, 3080 nM; with HeLa [1], 820 nM.

In the case of `COc1cc(-c2cc(OC)c3nnc(-c4ccc5c(ccn5C)c4)n3c2)cc(OC)c1OC`, the half-maximal inhibitory concentration (IC50) in the data set with MCF7, with HCT-116, in the data set on A549 and in the data set on HeLa [1] was more than 10000 nM throughout.

Turning to `CCOc1cc(-c2ccc3c(ccn3C)c2)cn2c(-c3cc(OC)c(OC)c(OC)c3)nnc12`, the 50% inhibitory concentration (IC50) in the data set with MCF7 turned out to be 140 nM; with HCT-116 it was 228 nM; in the data set on A549 it was 334 nM; in the data set with HeLa [1], 210 nM.

In the case of `COc1cc(-c2nnc3c(OC4CCC4)cc(-c4ccc5[nH]ccc5c4)cn23)cc(OC)c1OC`, the 50% inhibitory concentration (IC50) in the data set with MCF7 was determined as 267 nM; in the data set on HCT-116, 694 nM; in the data set on A549, 232 nM; with HeLa [1], 142 nM.

As to `COc1cc2c(c(OC)c1OC)-c1ccc(OC)c(=O)cc1[C@@H](NC(C)=O)CC2` [COLCHICINE], the half-maximal inhibitory concentration (IC50) was determined as 48 nM with MCF7, 83 nM in the data set with HCT-116, 111 nM in the data set on A549 and 103 nM in the data set with HeLa [1].

In the case of `COc1cc(-c2nnc3c(OC4CN(C(C)(C)C)C4)cc(-c4ccc5[nH]ccc5c4)cn23)cc(OC)c1OC`, the IC50 with MCF7, with HCT-116, in the data set with A549 and in the data set with HeLa [1] was more than 10000 nM in each case.

Regarding `COc1cc(-c2nnc3c(OC4COC4)cc(-c4ccc5[nH]ccc5c4)cn23)cc(OC)c1OC`, the IC50 with MCF7 is 2470 nM; with HCT-116, 5370 nM; in the data set with A549, 9810 nM; with HeLa [1], 2780 nM.

Take `COc1cc(-c2nnc3c(OC(C)C)cc(-c4ccc5c(ccn5C)c4)cn23)cc(OC)c1OC`: the IC50 with MCF7 stood at 204 nM; in the data set with HCT-116, 402 nM; with A549 it was 322 nM; in the data set on HeLa [1], 503 nM.

`CC(=O)O[C@H]1C(=O)[C@@]2(C)[C@H]([C@H](OC(=O)c3ccccc3)[C@]3(O)C[C@H](OC(=O)[C@H](O)[C@@H](NC(=O)c4ccccc4)c4ccccc4)C(C)=C1C3(C)C)[C@]1(OC(C)=O)CO[C@@H]1C[C@@H]2O` [PACLITAXEL]: the IC50 came to 21 nM in the data set with HCT-116, 15 nM with A549 and 8 nM in the data set with HeLa [1].

With `COc1cc(-c2nnc3c(OCC(F)(F)F)cc(-c4ccc5[nH]ccc5c4)cn23)cc(OC)c1OC`, the IC50 came out at 608 nM in the data set on MCF7, 900 nM with HCT-116, 585 nM in the data set on A549 and 348 nM in the data set with HeLa [1].

For `COc1cc(-c2nnc3c(OC4CC4)cc(-c4ccc5c(ccn5C)c4)cn23)cc(OC)c1OC`, the IC50 amounted to 118 nM in the data set with MCF7, 135 nM with HCT-116, 168 nM with A549 and 97 nM in the data set with HeLa [1].

As for `COc1cc(-c2nnc3c(OC)cc(-c4ccc5[nH]ccc5c4)cn23)cc(OC)c1OC`, the half-inhibitory concentration (IC50) was found to be 80 nM with MCF7, 108 nM with HCT-116, 167 nM in the data set with A549 and 85 nM in the data set on HeLa [1].

In the case of `COc1cc(-c2nnc3c(OCC(F)(F)F)cc(-c4ccc5c(ccn5C)c4)cn23)cc(OC)c1OC`, the half-inhibitory concentration (IC50) in the data set with MCF7 is 382 nM; in the data set with HCT-116, 483 nM; with A549, 614 nM; in the data set with HeLa [1], 199 nM.

Turning to `C=C(c1cc(OC)c(OC)c(OC)c1)c1ccc2c(c1)c1ccccc1n2C`, the half-maximal inhibitory concentration (IC50) worked out at 5490 nM in the data set with MCF7, 1540 nM with HCT-116, 478 nM in the data set on A549 and 3970 nM in the data set on HeLa [1].

Consider `COc1cc(-c2nnc3c(OC4CC4)cc(-c4ccc5[nH]ccc5c4)cn23)cc(OC)c1OC`, for which the half-inhibitory concentration (IC50) with MCF7 is 259 nM; in the data set on HCT-116 it was 275 nM; in the data set with A549 it was 198 nM; in the data set with HeLa [1] it was 119 nM.

For `COc1cc(-c2nnc3c(OC4COC4)cc(-c4ccc5c(ccn5C)c4)cn23)cc(OC)c1OC`, the IC50 stood at 1900 nM in the data set with MCF7, 1290 nM in the data set with HCT-116, 516 nM in the data set on A549 and 214 nM in the data set with HeLa [1].
